# Experimental data as given in ChEMBL document CHEMBL5233258, “Recent developments of gallic acid derivatives and their hybrids in medicinal chemistry: A review” (Eur J Med Chem, 2020).
# Legend:
# [1] = test system: HCT-116; experiment: Cytotoxicity against human HCT-116 cells assessed as reduction in cell viability incubated for 72 hrs by MTT assay; format: functional, cell-based; settings: HCT-116, 72 h
# [2] = test system: MCF7; experiment: Cytotoxicity against human MCF7 cells assessed as reduction in cell viability incubated for 72 hrs by MTT assay; format: functional, cell-based; settings: MCF7, 72 h
# [3] = test system: MCF7; experiment: Anticancer activity against human MCF7 cells assessed as inhibition of cell growth incubated for 24 hrs by MTT assay; format: functional, cell-based; settings: MCF7, 24 h
# [4] = test system: Escherichia coli; experiment: Antibacterial activity against Escherichia coli assessed as zone of inhibition incubated for 24 hrs by agar diffusion method; format: functional; also: test concentration or dose not given here
# [5] = test system: Bacillus subtilis; experiment: Bactericidal activity against Bacillus subtilis ATCC 9372 assessed as inhibition of bacterial growth incubated for 48 hrs by broth macrodilution method; format: functional
# [6] = test system: Micrococcus luteus; experiment: Antibacterial activity against Micrococcus luteus ATCC 4698 assessed as inhibition of bacterial growth incubated for 48 hrs by broth macrodilution method; format: functional
# [7] = test system: Micrococcus luteus; experiment: Bactericidal activity against Micrococcus luteus ATCC 4698 assessed as inhibition of bacterial growth incubated for 48 hrs by broth macrodilution method; format: functional
# [8] = test system: Corynebacterium ammoniagenes; experiment: Bactericidal activity against Brevibacterium ammoniagenes ATCC 6872 assessed as inhibition of bacterial growth incubated for 48 hrs by broth macrodilution method; format: functional
# [9] = test system: Corynebacterium ammoniagenes; experiment: Antibacterial activity against Brevibacterium ammoniagenes ATCC 6872 assessed as inhibition of bacterial growth incubated for 48 hrs by broth macrodilution method; format: functional
# [10] = test system: Staphylococcus aureus; experiment: Antibacterial activity against Staphylococcus aureus ATCC 12598 assessed as inhibition of bacterial growth incubated for 48 hrs by broth macrodilution method; format: functional
# [11] = test system: Bacillus subtilis; experiment: Antibacterial activity against Bacillus subtilis ATCC 9372 assessed as inhibition of bacterial growth incubated for 48 hrs by broth macrodilution method; format: functional
# [12] = test system: Staphylococcus aureus; experiment: Bactericidal activity against Staphylococcus aureus ATCC 12598 assessed as inhibition of bacterial growth incubated for 48 hrs by broth macrodilution method; format: functional
# [13] = test system: Pseudomonas aeruginosa; experiment: Antibacterial activity against Pseudomonas aeruginosa assessed as zone of inhibition incubated for 24 hrs by agar diffusion method; format: functional; also: test concentration or dose not given here
# [14] = test system: HeLa; experiment: Anticancer activity against human HeLa cells assessed as inhibition of cell growth incubated for 24 hrs by MTT assay; format: functional, cell-based
# [15] = test system: HCT-116; experiment: Anticancer activity against human HCT-116 cells assessed as inhibition of cell growth incubated for 24 hrs by MTT assay; format: functional, cell-based; settings: HCT-116, 24 h
# [16] = Antioxidant activity assessed as DPPH radical scavenging activity; format: functional
# [17] = Antioxidant activity assessed as ABTS radical scavenging activity; format: functional
# [18] = Antioxidant activity assessed as DPPH radical scavenging activity measured after 30 mins; format: functional
# [19] = test system: Mycobacterium tuberculosis; experiment: Antitubercular activity against Mycobacterium tuberculosis H37 Rv ATCC 27294 incubated for 7 days by Alamar blue assay; format: functional; settings: H37 Rv ATCC 27294, 168 h, time 7 day
# [20] = Inhibition of recombinant HIV-1 integrase using V1/V2 as substrate assessed as 3'-end processing of the substrate incubated for 1 hrs; design: species or system Human immunodeficiency virus 1
# [21] = test system: Bacillus subtilis; experiment: Antibacterial activity against Bacillus subtilis ATCC 6633 by Mueller-Hinton broth method; format: functional
# [22] = test system: Bacillus subtilis; experiment: Bactericidal activity against Bacillus subtilis ATCC 6633 by Mueller-Hinton broth method; format: functional
# [23] = Antioxidant activity assessed as DPPH radical scavenging activity measured after 30 mins by spectrophotometric analysis; format: functional
# [24] = test system: Human alphaherpesvirus 2; experiment: Antiviral activity against Herpes simplex viruses type 2 MS infected in Monkey BGM cells; format: functional, organism-based; settings: Human alphaherpesvirus 2, MS
# [25] = Antioxidant activity in ethanol solution by DPPH scavenging assay; format: functional
# [26] = Antioxidant activity in DOPC loaded liposomes by DPPH scavenging assay; format: physicochemical
# [27] = test system: Plasmodium falciparum; experiment: Antimalarial activity against Plasmodium falciparum; format: functional, organism-based
# [28] = test system: HCT-116; experiment: Cytotoxicity against human HCT-116 cells by MTT assay; format: functional, cell-based
# [29] = test system: HepG2; experiment: Cytotoxicity against human HepG2 cells by MTT assay; format: functional, cell-based
# [30] = Inhibition of recombinant HIV-1 integrase using 32-P labeled dBY-1 as substrate assessed as disintegration of substrate incubated for 1 hrs; design: species or system Human immunodeficiency virus 1
# [31] = species on record: Rattus norvegicus; experiment: Inhibition of tert-butylhydroperoxide induced lipid peroxidation in rat liver microsomes; format: functional, Microsome
structure (smiles),measurement,setting,value
COc1cc(/C=C/C(=O)CC(=O)/C=C/c2ccc(O)c(OC)c2)ccc1O [CURCUMIN],IC50,[1],34.7 µM
same,IC50,[2],13.7 µM
COc1ccc(/C=C\c2cc(OC)c(OC)c(OC)c2)cc1O [COMBRETASTATIN A4],IC50,[3],0.01 µM
COC1=CC(=O)C[C@@H](C)[C@]12Oc1c(Cl)c(OC)cc(OC)c1C2=O [GRISEOFULVIN],inhibition zone (IZ),[4],22 mm
COc1cc([C@@H]2c3cc4c(cc3[C@H](O)[C@H]3COC(=O)[C@H]23)OCO4)cc(OC)c1OC [PODOFILOX],IC50,[3],65 µM
COc1cccc(OC)c1C(=O)N[C@@H]1C(=O)N2[C@@H]1SC(C)(C)[C@@H]2C(=O)O [METHICILLIN],MBC,[5],6.25 µg/mL
same,MIC,[6],6.25 µg/mL
same,MBC,[7],6.25 µg/mL
same,MBC,[8],25 µg/mL
same,MIC,[9],25 µg/mL
same,MIC,[10],1.56 µg/mL
same,MIC,[11],1.56 µg/mL
same,MBC,[12],> 6.25 µg/mL
COc1cc(C(=O)N/N=C/c2ccc(-c3ccccn3)cc2)cc(OC)c1OC,inhibition zone (IZ),[4],17 mm
same,inhibition zone (IZ),[13],17 mm
O=C(O)c1cc(O)c(O)c(O)c1 [GALLIC ACID],IC50,[14],26.3 µg/mL
same,IC50,[15],41.8 µg/mL
CSc1nnc(C(=O)c2cc(O)c(O)c(O)c2)o1,IC50,[16],14.6 µM
same,IC50,[17],24.4 µM
Oc1cc(-c2nnc(CC(O)(Cc3nnc(-c4cc(O)c(O)c(O)c4)o3)c3nnco3)o2)cc(O)c1O,IC50,[16],16 µM
same,IC50,[17],125 µM
C/C(=N/NC(=O)c1cc(O)c(O)c(O)c1)c1cc(Cl)ccc1O,IC50,[18],1.14 µg/mL
CC/C(=C(\c1ccccc1)c1ccc(OCCN(C)C)cc1)c1ccccc1 [TAMOXIFEN],IC50,[3],9 µM
O=C(NN1C(=O)CSC1c1ccccc1Cl)c1cc(O)c(O)c(O)c1 (stereo unspecified),MIC,[19],0.79 µg/mL
Oc1cc(-c2nnc(Cc3nnc(-c4cc(O)c(O)c(O)c4)o3)o2)cc(O)c1O,IC50,[16],14.8 µM
same,IC50,[17],24.7 µM
NNC(=O)c1ccncc1 [ISONIAZID],MIC,[19],0.56 µg/mL
O=C(OC[C@]1(O)C[C@@H](O)[C@@H](O)[C@H](OC(=O)c2cc(O)c(O)c(O)c2)C1)c1cc(O)c(O)c(O)c1,IC50,[20],2.79 µM
CCCCCCCCCCCC[N+](C)(C)CC(=O)O,MIC,[21],1100 µM
same,MBC,[22],1100 µM
same,IC50,[23],4690 µM
COc1ccc(O)c(/C(C)=N\NC(=O)c2cc(O)c(O)c(O)c2)c1,IC50,[18],1.14 µg/mL
COC(=O)c1cc(O)c(O)c(O)c1 [GALLIC ACID METHYL ESTER],IC50,[24],0.224 µM
same,IC50,[25],7.2 µM
same,IC50,[26],8.41 µM
same,IC50,[27],30 µM
O=C(N/N=C/c1c[nH]c2ccc(Br)cc12)c1cc(O)c(O)c(O)c1,IC50,[1],13.3 µM
same,IC50,[23],172 µM
same,IC50,[2],6.7 µM
C/C(=N/NC(=O)c1cc(O)c(O)c(O)c1)c1ccccn1,IC50,[18],1.14 µg/mL
Cc1c(C)c2c(c(C)c1O)CCC(C)(C(=O)O)O2 (stereo unspecified) [TROLOX],IC50,[16],30.6 µM
CC1(C)S[C@@H]2[C@H](NC(=O)[C@H](N)c3ccccc3)C(=O)N2[C@H]1C(=O)O [AMPICILLIN],inhibition zone (IZ),[4],15 mm
same,inhibition zone (IZ),[13],15 mm
COc1ccc(C2=NN(C(=O)c3cc(O)c(O)c(O)c3)C(c3ccc(C#N)cc3)C2)cc1OC (stereo unspecified),IC50,[28],31.5 µg/mL
same,IC50,[29],15.2 µg/mL
Cc1c(C)c2c(c(C)c1O)CC[C@@](C)(CCC[C@H](C)CCC[C@H](C)CCCC(C)C)O2 [ALPHA-TOCOPHEROL],IC50,[23],911 µM
O=C(/C=C/c1ccc(O)c(O)c1)O[C@@H]1C[C@](O)(C(=O)O)C[C@@H](OC(=O)/C=C/c2ccc(O)c(O)c2)[C@H]1O,IC50,[30],5.53 µM
CCCCCCOC(=O)c1cc(O)c(O)c(O)c1 [HEXYL GALLATE],IC50,[27],110 µM
CCCCCCCCCCCC[N+](C)(C)CCOCCO,MIC,[21],2400 µM
same,MBC,[22],2400 µM
same,IC50,[23],4820 µM
CC(=O)O[C@H]1C(=O)[C@@]2(C)[C@H]([C@H](OC(=O)c3ccccc3)[C@]3(O)C[C@H](OC(=O)[C@H](O)[C@@H](NC(=O)c4ccccc4)c4ccccc4)C(C)=C1C3(C)C)[C@]1(OC(C)=O)CO[C@@H]1C[C@@H]2O [PACLITAXEL],IC50,[28],0.915 µg/mL
same,IC50,[29],0.66 µg/mL
same,IC50,[3],0.0025 µM
O=C(O)c1cc(OCCNC(=O)c2cc(OCCNC(=O)c3cc(OCNC(=O)c4cc(O)c(O)c(O)c4)cc(OCNC(=O)c4cc(O)c(O)c(O)c4)c3)cc(OCCNC(=O)c3cc(OCNC(=O)c4cc(O)c(O)c(O)c4)cc(OCNC(=O)c4cc(O)c(O)c(O)c4)c3)c2)cc(OCCNC(=O)c2ccc(OCCNC(=O)c3cc(OCNC(=O)c4cc(O)c(O)c(O)c4)cc(OCNC(=O)c4cc(O)c(O)c(O)c4)c3)c(OCCNC(=O)c3cc(OCNC(=O)c4cc(O)c(O)c(O)c4)cc(OCNC(=O)c4cc(O)c(O)c(O)c4)c3)c2)c1,ED50,[16],4.7 µM
COc1cc2c(cc1Cc1cccc(Cl)c1F)c(=O)c(C(=O)O)cn2[C@H](CO)C(C)C [ELVITEGRAVIR],IC50,[30],> 100 µM
CCCCCCCCCC[N+](C)(C)CCO,MIC,[21],1200 µM
same,MBC,[22],1200 µM
O=C(O[C@@H]1C[C@@H](O)[C@@H](O)[C@H](OC(=O)c2cc(O)c(O)c(O)c2)C1)c1cc(O)c(O)c(O)c1,IC50,[20],0.33 µM
COc1cc(C(=O)N/N=C/c2c(CO)cnc(C)c2O)cc(OC)c1OC,inhibition zone (IZ),[4],17 mm
same,inhibition zone (IZ),[13],17 mm
C/C(=N/NC(=O)c1cc(O)c(O)c(O)c1)c1cc(Br)ccc1O,IC50,[18],1.14 µg/mL
COc1cc(C(=O)N/N=C/c2cc3ccccc3[nH]2)cc(OC)c1OC,inhibition zone (IZ),[4],17 mm
same,inhibition zone (IZ),[13],17 mm
COc1cc(C(=O)NN=Cc2nc(-c3ccccc3)c[nH]2)cc(OC)c1OC,inhibition zone (IZ),[4],17 mm
same,inhibition zone (IZ),[13],17 mm
N#Cc1c(NC(=O)c2cc(O)c(O)c(O)c2)sc2c1CCCCC2,IC50,[15],3.2 µg/mL
COc1ccc(C2CC(c3ccc(OC)c(OC)c3)=NN2C(=O)c2cc(O)c(O)c(O)c2)cc1 (stereo unspecified),IC50,[28],18.6 µg/mL
same,IC50,[29],8.4 µg/mL
O=C1O[C@H]([C@@H](O)CO)C(O)=C1O [ASCORBIC ACID],IC50,[18],2.26 µg/mL
same,IC50,[16],18 µM
same,IC50,[23],981 µM
same,IC50,[17],30.1 µM
O=C(N/N=C/c1c[nH]c2ccc(Cl)cc12)c1cc(O)c(O)c(O)c1,IC50,[1],19.2 µM
same,IC50,[23],189 µM
same,IC50,[2],6.7 µM
CCCCCCCCCC[N+]1(C)CCCCC1,MIC,[21],1000 µM
same,MBC,[22],1000 µM
N#Cc1c(NC(=O)c2cc(O)c(O)c(O)c2)sc2c1CCC2,IC50,[14],59.4 µg/mL
Cc1nnc(C(=O)NC(C)(C)c2nc(C(=O)NCc3ccc(F)cc3)c(O)c(=O)n2C)o1 [RALTEGRAVIR],IC50,[30],35.2 µM
O=c1c(O[C@@H]2O[C@H](CO)[C@@H](O)[C@H](O)[C@H]2O)c(-c2ccc(O)c(O)c2)oc2cc(O)cc(O)c12 [ISOQUERCETIN],IC50,[31],972 µM
O=C(OC[C@H]1O[C@@H](Oc2c(-c3ccc(O)c(O)c3)oc3cc(O)cc(O)c3c2=O)[C@H](O)[C@@H](O)[C@@H]1O)c1cc(O)c(O)c(O)c1,IC50,[31],6.64 µM
O=C(O[C@@H]1C[C@H](O)C[C@@H](O)[C@H]1O)c1cc(O)c(O)c(O)c1,IC50,[20],0.71 µM
COc1cc(/C=C\c2cc3c(cc2OC(C)=O)CC[C@@H]2[C@@H]3CC[C@]3(C)[C@@H](OC(C)=O)CC[C@@H]23)cc(OC)c1OC,IC50,[3],7.5 µM
COc1cc(C(=O)N/N=C/c2ccnc3ccccc23)cc(OC)c1OC,inhibition zone (IZ),[4],17 mm
same,inhibition zone (IZ),[13],17 mm
